Measurements as given in US11123362B2, “Compositions and methods to affect skin irritation” (ALUMEND, LLC, priority 2015, dated 2021).

Columns and labels:
[1] = system: Epidermal equivalents (EPI-200); assay: Visual observation of tissues after four days of daily retinol treatment (Example 3); assay type: cell-based; conditions: 1% retinol in vehicle, daily for four days
Protocol: Epidermal equivalents (EPI-200 from MatTek, Ashland, Mass.) were topically treated daily, for four days, with 30 μl of each test article, n=3 tissues per treatment group. Test articles were removed from the apical surface of the tissue daily by washing with PBS prior to reapplication of test article. Tissues were fed daily with 0.9 mL EPI-100-NMM. Tissues remained untreated, or treated with a vehicle (45% ethanol, 0.1% BHT, in PBS), without and with increasing concentrations of retinol (0.01-1%), with or without the addition of the modified chitosan (1%).

[2] = system: IL-1α secretion, epidermal equivalents (EPI-200); assay: IL-1α levels at 96 hr, daily retinol treatment, ELISA (Example 4); assay type: cell-based, human
Protocol: Epidermal equivalents (EPI-200 from MatTek, Ashland, Mass.) were topically treated daily, for four days, with 30 μl of each test article, n=3 tissues per treatment group. n=3 tissues were left untreated. Test articles were removed from the apical surface of the tissue daily by washing with PBS prior to reapplication of test article. […] Media was collected at 96 hour post treatment and IL-1α concentration was analyzed using the Human IL-1α ELISA Duo Set (R&D Systems, cat# DY200, Lot 1353857). A Bio-Tek microplate reader and KC4 software were used for sample analysis.

[3] = system: three-dimensional human epidermal equivalents (EPI-200); assay: In Vitro Skin Irritation Test, MTT tissue viability upon SDS exposure (Example 1); conditions: for mean of viability [%]: 60 minute exposure, MTT after 42 hr
Protocol: An In Vitro Skin Irritation Test was performed according to OCED guidelines. Irritant materials are identified by their ability to decrease cell viability below a defined threshold level of 50%. Moreover, if the cytotoxic effect is absent or weak, a quantifiable amount of inflammatory mediators (e.g. IL-1α) is released by the epidermis and may be used in a tiered approach to increase the sensitivity of the test.
Test materials (30 μl) were topically applied onto three-dimensional human epidermal equivalents (EPI-200 from MatTek, Ashland, Mass.), n=3 tissues per treatment group. Test materials included a positive control irritant (5% sodium dodecyl sulfate, SDS), and a negative control (Phosphate Buffered Saline, PBS), and aqueous SDS solutions of 0.2, 0.4 and 0.6%, with or without the addition of modified chitosan (1%). Modified chitosan (1%) alone was also included.
After a 60 minute exposure, the tissues were rinsed with PBS and were transferred to fresh medium. After 24 hours, media was collected for IL-1α analysis and tissues were transferred to fresh media for an additional 18 hr to allow the toxic effect of irritant chemicals to develop. After the 42 hr post-exposure equilibration, media was again collected and tissue viability was determined using an MTT assay.

[4] = system: IL-1α secretion, human epidermal equivalents (EPI-200); assay: IL-1α secretion upon SDS exposure, ELISA (Example 1); assay type: cell-based; conditions: for IL-1α secretion, Avg: media at 24 hours
Protocol: (§1) IL-1α secretion was analyzed using the Human IL-1α ELISA Duo Set (R&D Systems, cat# DY200, Lot 1353857). A Bio-Tek microplate reader and KC4 software were used for sample analysis.

[5] = system: three-dimensional human epidermal equivalents (EPI-200); assay: In Vitro Skin Irritation Test, MTT tissue viability, retinoids (Example 2); assay type: cell-based; conditions: positive control irritant (5% SDS)
Protocol: Retinoids were dissolved in one of two vehicles: V1 (50% ethanol, 20% glycerin, 0.1% BHT, in PBS) or V2 (50% ethanol, 0.1% BHT, in PBS).

[6] = system: IL-1α secretion, human epidermal equivalents (EPI-200); assay: IL-1α levels 24 hr post-exposure, retinoids, ELISA (Example 2); assay type: cell-based; conditions: 5% SDS, Positive Control
Protocol: Retinoids were dissolved in one of two vehicles: […] […] A Bio-Tek microplate reader and KC4 software were used for sample analysis.

[7] = system: IL-1α secretion, human epidermal equivalents (EPI-200); assay: IL-1α secretion upon chymotrypsin exposure (Example 5, diaper rash irritation); assay type: cell-based
Protocol: (§2) Modified chitosan (1%) alone was also included.
as §1
(§3) The method is described in Example 1. Test articles included Chymotrypsin (0.005, 0.01 and 0.02%), with and without modified chitosan (1%). Chymotrypsin is the major fecal irritant enzyme that initiates diaper rash.

[8] = system: three-dimensional human epidermal equivalents (EPI-200); assay: Cell death upon chymotrypsin exposure (Example 5); assay type: cell-based; conditions: chymotrypsin 0.005-0.02%, one hour exposure
Description: as §2, §3

[9] = Untreated + Chymotrypsin (0.005%)
[10] = Untreated + Chymotrypsin (0.01%)
[11] = Untreated + Chymotrypsin (0.02%)

Molecule: CC1=C(/C=C/C(C)=C/C=C/C(C)=C/CO)C(C)(C)CCC1 [retinol]
- visual observations at 96 hour post treatment [1]: partially disintegrated
- IL-1α levels at 96 hr post-exposure, AVG ([2]; Vehicle + retinol (0.01%)): 104.90
- IL-1α levels at 96 hr post-exposure, Tissue 1 ([2]; Vehicle + retinol (0.01%)): 124.24
- IL-1α levels at 96 hr post-exposure, Tissue 2 ([2]; Vehicle + retinol (0.01%)): 108.54
- IL-1α levels at 96 hr post-exposure, Tissue 3 ([2]; Vehicle + retinol (0.01%)): 81.94
- IL-1α levels at 96 hr post-exposure, AVG ([2]; Vehicle + retinol (0.1%)): 240.68
- IL-1α levels at 96 hr post-exposure, Tissue 1 ([2]; Vehicle + retinol (0.1%)): 351.17
- IL-1α levels at 96 hr post-exposure, Tissue 2 ([2]; Vehicle + retinol (0.1%)): 108.86
- IL-1α levels at 96 hr post-exposure, Tissue 3 ([2]; Vehicle + retinol (0.1%)): 262.00
- IL-1α levels at 96 hr post-exposure, AVG ([2]; Vehicle + retinol (1%)): 1020.46
- IL-1α levels at 96 hr post-exposure, Tissue 1 ([2]; Vehicle + retinol (1%)): 885.52
- IL-1α levels at 96 hr post-exposure, Tissue 2 ([2]; Vehicle + retinol (1%)): 1097.75
- IL-1α levels at 96 hr post-exposure, Tissue 3 ([2]; Vehicle + retinol (1%)): 1078.11
- skin irritation by IL-1α secretion biomarker ([2]; retinol 0.01-1% in vehicle): induces skin irritation in a dose-responsive manner

Molecule: CCCCCCCCCCCCOS(=O)(=O)[O-].[Na+] [SDS, sodium dodecyl sulfate]
- mean of viability [%] ([3]; 0.2% SDS): 110.0%
- mean of viability [%] ([3]; 0.4% SDS): 106.3%
- tissues dead ([3]; 0.6% SDS): ~90%
- mean of viability [%] ([3]; 0.6% SDS): 13.8%
- mean of viability [%] ([3]; 5% SDS (PC)): 11.1%
- IL-1α secretion, Avg ([4]; 0.2% SDS): 151.98
- IL-1α secretion, Avg ([4]; 0.4% SDS): 334.95
- IL-1α secretion, Avg ([4]; 0.6% SDS): 524.61
- IL-1α secretion, Avg ([4]; PC (5% SDS)): 425.23
- IL-1α secretion ([4]; SDS exposure 0.2-0.6%): dose-dependent increase in IL-1α secretion
- viability [5]: less than 10%
- IL-1α levels 24 hr post-exposure, AVG [6]: >524.6
- IL-1α secretion, AVG ([7]; Positive Control (PC, 5% SDS)): 394.114
- IL-1α secretion, tissue 1 ([7]; Positive Control (PC, 5% SDS)): 459.595
- IL-1α secretion, tissue 2 ([7]; Positive Control (PC, 5% SDS)): 384.839
- IL-1α secretion, tissue 3 ([7]; Positive Control (PC, 5% SDS)): 337.908

Molecule: Chymotrypsin
- IL-1α secretion, AVG [7, 9]: 65.279
- IL-1α secretion, tissue 1 [7, 9]: 47.295
- IL-1α secretion, tissue 2 [7, 9]: 74.241
- IL-1α secretion, tissue 3 [7, 9]: 74.302
- IL-1α secretion, AVG [7, 10]: 66.405
- IL-1α secretion, tissue 1 [7, 10]: 58.421
- IL-1α secretion, tissue 2 [7, 10]: 53.293
- IL-1α secretion, tissue 3 [7, 10]: 87.502
- IL-1α secretion, AVG [7, 11]: 166.821
- IL-1α secretion, tissue 1 [7, 11]: 67.307
- IL-1α secretion, tissue 2 [7, 11]: 353.378
- IL-1α secretion, tissue 3 [7, 11]: 79.779
- IL-1α secretion ([7]; chymotrypsin exposure 0.005-0.02%): dose-dependent increase in IL-1α secretion
- cell death [8]: did not induce cell death
